For one assay, the target named is T1, human GLP-1 receptor (Homo sapiens, UniProt P43220).
T1 construct: host or cells: CHO cells
In words: DiscoveRx LeadHunter cellular assay, cAMP stimulation, GLP-1 receptor in CHO cells. It counts as cell-based. The settings on record: human GLP-1 receptor in CHO cells (DiscoveRx); read-out: EC50 cAMP GLP-1 R.

The target in a further assay is T2, human glucagon receptor (Homo sapiens, UniProt P47871).
T2 construct: host or cells: CHO cells
In words: DiscoveRx LeadHunter cellular assay, cAMP stimulation, glucagon receptor in CHO cells. It counts as cell-based.

[1] abbreviates: read-out: EC50 cAMP Glucagon R, human glucagon receptor in CHO cells (DiscoveRx).

Like-named read-outs stand apart in the source and are kept apart here.

Usually EC50 stands for the midpoint of the concentration-response curve.

T1 sequence (P43220 24-463): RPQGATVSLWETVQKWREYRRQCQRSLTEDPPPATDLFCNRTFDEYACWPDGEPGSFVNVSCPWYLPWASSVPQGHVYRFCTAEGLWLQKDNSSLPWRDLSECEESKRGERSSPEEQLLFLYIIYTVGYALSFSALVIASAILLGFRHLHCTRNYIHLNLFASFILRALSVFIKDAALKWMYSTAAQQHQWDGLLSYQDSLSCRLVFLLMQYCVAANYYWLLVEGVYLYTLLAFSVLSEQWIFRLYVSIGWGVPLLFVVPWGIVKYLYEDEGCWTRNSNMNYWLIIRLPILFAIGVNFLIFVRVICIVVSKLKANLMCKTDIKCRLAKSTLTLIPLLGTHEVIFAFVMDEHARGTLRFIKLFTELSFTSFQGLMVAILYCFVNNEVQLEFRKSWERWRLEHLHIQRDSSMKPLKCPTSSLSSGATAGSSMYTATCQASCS
T2 sequence (P47871 26-477): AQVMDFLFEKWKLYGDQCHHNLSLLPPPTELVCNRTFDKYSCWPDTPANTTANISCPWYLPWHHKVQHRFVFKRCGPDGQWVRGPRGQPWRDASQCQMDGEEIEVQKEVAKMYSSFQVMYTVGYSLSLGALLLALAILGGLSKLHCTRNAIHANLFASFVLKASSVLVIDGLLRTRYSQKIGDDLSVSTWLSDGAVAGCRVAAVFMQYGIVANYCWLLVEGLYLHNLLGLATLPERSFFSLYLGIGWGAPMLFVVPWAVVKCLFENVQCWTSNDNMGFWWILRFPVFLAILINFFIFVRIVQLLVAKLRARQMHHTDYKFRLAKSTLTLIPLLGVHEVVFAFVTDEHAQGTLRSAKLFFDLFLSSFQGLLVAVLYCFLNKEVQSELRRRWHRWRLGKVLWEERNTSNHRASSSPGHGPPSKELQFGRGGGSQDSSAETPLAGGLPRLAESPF
Method for human GLP-1 receptor: (§1) A further series of cellular assays was carried out with standard cellular assays (DiscoveRx, LeadHunter assays) using readout of cAMP stimulation or arrestin activation. Compounds were weighed precisely in an amount of about 1 mg and shipped to DiscoveRx for dilution and assay.
Method for human glucagon receptor: as §1

On to `CCCCCCCCCCCCO[C@@H]1O[C@H](C(=O)NCCCC[C@H](N)C(=O)NCCCC[C@H](NC(=O)[C@@H](NC(=O)[C@H](Cc2ccccc2)NC(=O)[C@H](CCC(=O)O)NC(=O)[C@@H]2CCCCNC(=O)CC[C@H](NC(=O)[C@H](CC(=O)O)NC(=O)[C@H](CC(C)C)NC(=O)[C@H](Cc3ccc(O)cc3)NC(=O)[C@H](CCCCN)NC(=O)[C@H](CO)NC(=O)[C@H](Cc3ccc(O)cc3)NC(=O)[C@H](CC(=O)O)NC(=O)[C@H](CO)NC(=O)[C@@H](NC(=O)[C@H](Cc3ccccc3)NC(=O)[C@@H](NC(=O)CNC(=O)[C@H](CCC(N)=O)NC(=O)C(C)(C)NC(=O)[C@@H](N)Cc3c[nH]cn3)[C@@H](C)O)[C@@H](C)O)C(=O)N[C@@H](CCC(N)=O)C(=O)N[C@@H](C)C(=O)N[C@@H](C)C(=O)N2)[C@@H](C)CC)C(=O)N[C@@H](Cc2c[nH]c3ccccc23)C(=O)N[C@@H](CC(C)C)C(=O)N[C@@H](CC(C)C)C(=O)N[C@@H](CCC(N)=O)C(=O)N[C@H](C(N)=O)[C@@H](C)O)[C@@H](O)[C@H](O)[C@H]1O` [EU-A1711], for which the EC50 was found to be 0.009 nM at human GLP-1 receptor and 0.026 nM on human glucagon receptor.

For the compound `CCCCCCCCCCCCCCO[C@@H]1O[C@H](C(=O)NCCCC[C@H](N)C(=O)NCCCC[C@H](NC(=O)[C@@H](NC(=O)[C@H](Cc2ccccc2)NC(=O)[C@H](CCC(=O)O)NC(=O)[C@@H]2CCCCNC(=O)CC[C@H](NC(=O)[C@H](CC(=O)O)NC(=O)[C@H](CC(C)C)NC(=O)[C@H](Cc3ccc(O)cc3)NC(=O)[C@H](CCCCN)NC(=O)[C@H](CO)NC(=O)[C@H](Cc3ccc(O)cc3)NC(=O)[C@H](CC(=O)O)NC(=O)[C@H](CO)NC(=O)[C@@H](NC(=O)[C@H](Cc3ccccc3)NC(=O)[C@@H](NC(=O)CNC(=O)[C@H](CCC(N)=O)NC(=O)C(C)(C)NC(=O)[C@@H](N)Cc3c[nH]cn3)[C@@H](C)O)[C@@H](C)O)C(=O)N[C@@H](CCC(N)=O)C(=O)N[C@@H](C)C(=O)N[C@@H](C)C(=O)N2)[C@@H](C)CC)C(=O)N[C@@H](Cc2c[nH]c3ccccc23)C(=O)N[C@@H](CC(C)C)C(=O)N[C@@H](CC(C)C)C(=O)N[C@@H](CCC(N)=O)C(=O)N[C@H](C(N)=O)[C@@H](C)O)[C@@H](O)[C@H](O)[C@H]1O` [EU-A1712], the EC50 worked out at 0.037 nM on human GLP-1 receptor and 0.175 nM at human glucagon receptor (setting [1]).

For `CCCCCCCCCCCCCCCCO[C@@H]1O[C@H](C(=O)NCCCC[C@H](N)C(=O)NCCCC[C@H](NC(=O)[C@@H](NC(=O)[C@H](Cc2ccccc2)NC(=O)[C@H](CCC(=O)O)NC(=O)[C@@H]2CCCCNC(=O)CC[C@H](NC(=O)[C@H](CC(=O)O)NC(=O)[C@H](CC(C)C)NC(=O)[C@H](Cc3ccc(O)cc3)NC(=O)[C@H](CCCCN)NC(=O)[C@H](CO)NC(=O)[C@H](Cc3ccc(O)cc3)NC(=O)[C@H](CC(=O)O)NC(=O)[C@H](CO)NC(=O)[C@@H](NC(=O)[C@H](Cc3ccccc3)NC(=O)[C@@H](NC(=O)CNC(=O)[C@H](CCC(N)=O)NC(=O)C(C)(C)NC(=O)[C@@H](N)Cc3c[nH]cn3)[C@@H](C)O)[C@@H](C)O)C(=O)N[C@@H](CCC(N)=O)C(=O)N[C@@H](C)C(=O)N[C@@H](C)C(=O)N2)[C@@H](C)CC)C(=O)N[C@@H](Cc2c[nH]c3ccccc23)C(=O)N[C@@H](CC(C)C)C(=O)N[C@@H](CC(C)C)C(=O)N[C@@H](CCC(N)=O)C(=O)N[C@H](C(N)=O)[C@@H](C)O)[C@@H](O)[C@H](O)[C@H]1O` [EU-A1713], the values for the EC50 on human GLP-1 receptor and on human glucagon receptor were 0.308 nM and 2.51 nM, respectively.

In the case of `CCCCCCCCCCO[C@@H]1O[C@H](C(=O)N[C@@H](CCC(=O)NCCCC[C@H](NC(=O)[C@@H](NC(=O)[C@H](Cc2ccccc2)NC(=O)[C@H](CCC(=O)O)NC(=O)[C@@H]2CCCCNC(=O)CC[C@H](NC(=O)[C@H](CC(=O)O)NC(=O)[C@H](CC(C)C)NC(=O)[C@H](Cc3ccc(O)cc3)NC(=O)[C@H](CCCCN)NC(=O)[C@H](CO)NC(=O)[C@H](Cc3ccc(O)cc3)NC(=O)[C@H](CC(=O)O)NC(=O)[C@H](CO)NC(=O)[C@@H](NC(=O)[C@H](Cc3ccccc3)NC(=O)[C@@H](NC(=O)CNC(=O)[C@H](CCC(N)=O)NC(=O)C(C)(C)NC(=O)[C@@H](N)Cc3c[nH]cn3)[C@@H](C)O)[C@@H](C)O)C(=O)N[C@@H](CCC(N)=O)C(=O)N[C@@H](C)C(=O)N[C@@H](C)C(=O)N2)[C@@H](C)CC)C(=O)N[C@@H](Cc2c[nH]c3ccccc23)C(=O)N[C@@H](CC(C)C)C(=O)N[C@@H](CC(C)C)C(=O)N[C@@H](CCC(N)=O)C(=O)N[C@H](C(N)=O)[C@@H](C)O)C(=O)O)[C@@H](O)[C@H](O)[C@H]1O` [EU-A1716], the EC50 at human GLP-1 receptor turned out to be 0.013 nM; on human glucagon receptor, 0.032 nM.

Turning to `CCCCCCCCCCCCO[C@@H]1O[C@H](C(=O)N[C@@H](CCC(=O)NCCCC[C@H](NC(=O)[C@@H](NC(=O)[C@H](Cc2ccccc2)NC(=O)[C@H](CCC(=O)O)NC(=O)[C@@H]2CCCCNC(=O)CC[C@H](NC(=O)[C@H](CC(=O)O)NC(=O)[C@H](CC(C)C)NC(=O)[C@H](Cc3ccc(O)cc3)NC(=O)[C@H](CCCCN)NC(=O)[C@H](CO)NC(=O)[C@H](Cc3ccc(O)cc3)NC(=O)[C@H](CC(=O)O)NC(=O)[C@H](CO)NC(=O)[C@@H](NC(=O)[C@H](Cc3ccccc3)NC(=O)[C@@H](NC(=O)CNC(=O)[C@H](CCC(N)=O)NC(=O)C(C)(C)NC(=O)[C@@H](N)Cc3c[nH]cn3)[C@@H](C)O)[C@@H](C)O)C(=O)N[C@@H](CCC(N)=O)C(=O)N[C@@H](C)C(=O)N[C@@H](C)C(=O)N2)[C@@H](C)CC)C(=O)N[C@@H](Cc2c[nH]c3ccccc23)C(=O)N[C@@H](CC(C)C)C(=O)N[C@@H](CC(C)C)C(=O)N[C@@H](CCC(N)=O)C(=O)N[C@H](C(N)=O)[C@@H](C)O)C(=O)O)[C@@H](O)[C@H](O)[C@H]1O` [EU-A1717], the results for the EC50 at human GLP-1 receptor and at human glucagon receptor were 0.011 nM and 0.035 nM, respectively.

Regarding `CCCCCCCCCCCCCCO[C@@H]1O[C@H](C(=O)N[C@@H](CCC(=O)NCCCC[C@H](NC(=O)[C@@H](NC(=O)[C@H](Cc2ccccc2)NC(=O)[C@H](CCC(=O)O)NC(=O)[C@@H]2CCCCNC(=O)CC[C@H](NC(=O)[C@H](CC(=O)O)NC(=O)[C@H](CC(C)C)NC(=O)[C@H](Cc3ccc(O)cc3)NC(=O)[C@H](CCCCN)NC(=O)[C@H](CO)NC(=O)[C@H](Cc3ccc(O)cc3)NC(=O)[C@H](CC(=O)O)NC(=O)[C@H](CO)NC(=O)[C@@H](NC(=O)[C@H](Cc3ccccc3)NC(=O)[C@@H](NC(=O)CNC(=O)[C@H](CCC(N)=O)NC(=O)C(C)(C)NC(=O)[C@@H](N)Cc3c[nH]cn3)[C@@H](C)O)[C@@H](C)O)C(=O)N[C@@H](CCC(N)=O)C(=O)N[C@@H](C)C(=O)N[C@@H](C)C(=O)N2)[C@@H](C)CC)C(=O)N[C@@H](Cc2c[nH]c3ccccc23)C(=O)N[C@@H](CC(C)C)C(=O)N[C@@H](CC(C)C)C(=O)N[C@@H](CCC(N)=O)C(=O)N[C@H](C(N)=O)[C@@H](C)O)C(=O)O)[C@@H](O)[C@H](O)[C@H]1O` [EU-A1718], the concentration giving a half-maximal response (EC50) is 0.043 nM at human GLP-1 receptor and 0.097 nM at human glucagon receptor (setting [1]).

Turning to `CCCCCCCCCCCCCCCCO[C@@H]1O[C@H](C(=O)N[C@@H](CCC(=O)NCCCC[C@H](NC(=O)[C@@H](NC(=O)[C@H](Cc2ccccc2)NC(=O)[C@H](CCC(=O)O)NC(=O)[C@@H]2CCCCNC(=O)CC[C@H](NC(=O)[C@H](CC(=O)O)NC(=O)[C@H](CC(C)C)NC(=O)[C@H](Cc3ccc(O)cc3)NC(=O)[C@H](CCCCN)NC(=O)[C@H](CO)NC(=O)[C@H](Cc3ccc(O)cc3)NC(=O)[C@H](CC(=O)O)NC(=O)[C@H](CO)NC(=O)[C@@H](NC(=O)[C@H](Cc3ccccc3)NC(=O)[C@@H](NC(=O)CNC(=O)[C@H](CCC(N)=O)NC(=O)C(C)(C)NC(=O)[C@@H](N)Cc3c[nH]cn3)[C@@H](C)O)[C@@H](C)O)C(=O)N[C@@H](CCC(N)=O)C(=O)N[C@@H](C)C(=O)N[C@@H](C)C(=O)N2)[C@@H](C)CC)C(=O)N[C@@H](Cc2c[nH]c3ccccc23)C(=O)N[C@@H](CC(C)C)C(=O)N[C@@H](CC(C)C)C(=O)N[C@@H](CCC(N)=O)C(=O)N[C@H](C(N)=O)[C@@H](C)O)C(=O)O)[C@@H](O)[C@H](O)[C@H]1O` [EU-A1719], the EC50 came out at 0.095 nM at human GLP-1 receptor and 0.746 nM on human glucagon receptor.

Consider `CCCCCCCCCCO[C@@H]1O[C@H](C(=O)N[C@@H](CCC(=O)N[C@@H](CCC(=O)NCCCC[C@H](NC(=O)[C@@H](NC(=O)[C@H](Cc2ccccc2)NC(=O)[C@H](CCC(=O)O)NC(=O)[C@@H]2CCCCNC(=O)CC[C@H](NC(=O)[C@H](CC(=O)O)NC(=O)[C@H](CC(C)C)NC(=O)[C@H](Cc3ccc(O)cc3)NC(=O)[C@H](CCCCN)NC(=O)[C@H](CO)NC(=O)[C@H](Cc3ccc(O)cc3)NC(=O)[C@H](CC(=O)O)NC(=O)[C@H](CO)NC(=O)[C@@H](NC(=O)[C@H](Cc3ccccc3)NC(=O)[C@@H](NC(=O)CNC(=O)[C@H](CCC(N)=O)NC(=O)C(C)(C)NC(=O)[C@@H](N)Cc3c[nH]cn3)[C@@H](C)O)[C@@H](C)O)C(=O)N[C@@H](CCC(N)=O)C(=O)N[C@@H](C)C(=O)N[C@@H](C)C(=O)N2)[C@@H](C)CC)C(=O)N[C@@H](Cc2c[nH]c3ccccc23)C(=O)N[C@@H](CC(C)C)C(=O)N[C@@H](CC(C)C)C(=O)N[C@@H](CCC(N)=O)C(=O)N[C@H](C(N)=O)[C@@H](C)O)C(=O)O)C(=O)O)[C@@H](O)[C@H](O)[C@H]1O` [EU-A1722], for which the EC50 on human GLP-1 receptor worked out at 0.006 nM; on human glucagon receptor, 0.012 nM.

On to `CCCCCCCCCCCCO[C@@H]1O[C@H](C(=O)N[C@@H](CCC(=O)N[C@@H](CCC(=O)NCCCC[C@H](NC(=O)[C@@H](NC(=O)[C@H](Cc2ccccc2)NC(=O)[C@H](CCC(=O)O)NC(=O)[C@@H]2CCCCNC(=O)CC[C@H](NC(=O)[C@H](CC(=O)O)NC(=O)[C@H](CC(C)C)NC(=O)[C@H](Cc3ccc(O)cc3)NC(=O)[C@H](CCCCN)NC(=O)[C@H](CO)NC(=O)[C@H](Cc3ccc(O)cc3)NC(=O)[C@H](CC(=O)O)NC(=O)[C@H](CO)NC(=O)[C@@H](NC(=O)[C@H](Cc3ccccc3)NC(=O)[C@@H](NC(=O)CNC(=O)[C@H](CCC(N)=O)NC(=O)C(C)(C)NC(=O)[C@@H](N)Cc3c[nH]cn3)[C@@H](C)O)[C@@H](C)O)C(=O)N[C@@H](CCC(N)=O)C(=O)N[C@@H](C)C(=O)N[C@@H](C)C(=O)N2)[C@@H](C)CC)C(=O)N[C@@H](Cc2c[nH]c3ccccc23)C(=O)N[C@@H](CC(C)C)C(=O)N[C@@H](CC(C)C)C(=O)N[C@@H](CCC(N)=O)C(=O)N[C@H](C(N)=O)[C@@H](C)O)C(=O)O)C(=O)O)[C@@H](O)[C@H](O)[C@H]1O` [EU-A1723], for which the EC50 is 0.028 nM at human GLP-1 receptor and 0.062 nM at human glucagon receptor.
